Test results as given in article PMC12298351, “Novel 3,19-(N-Phenyl-3-(4-fluorophenyl)-pyrazole) Acetal of Andrographolide Promotes Cell Cycle Arrest and Apoptosis in MDA-MB-231 Breast Cancer Cells” (Pharmaceuticals, 2025).

Assays:
[1] = system: HL-60(TB)
[2] = system: OVCAR-4; type: cell-based; conditions: OVCAR-4, Ovarian
[3] = system: BT-549; type: cell-based; conditions: BT-549, Breast
[4] = system: T-47D
[5] = system: SNB-19; type: cell-based; conditions: SNB-19, CNS
[6] = system: HS 578T
[7] = system: MALME-3M; conditions: Melanoma
[8] = system: LOX IMVI
[9] = system: NCI-H23
[10] = system: A549/ATCC
[11] = system: HT29; conditions: HT29, Colon
[12] = system: A498; conditions: A498, Renal
[13] = system: CCRF-CEM
[14] = system: K-562; conditions: K-562, Leukemia
[15] = system: SNB-75; conditions: SNB-75, CNS
[16] = system: TK-10; type: cell-based; conditions: TK-10, Renal
[17] = system: SN12C
[18] = system: HOP-62
[19] = system: SW-620; conditions: SW-620, Colon
[20] = system: UACC-62; conditions: UACC-62, Melanoma
[21] = system: COLO 205; conditions: COLO 205, Colon
[22] = system: PC-3; conditions: PC-3, Prostate
[23] = system: UACC-257; conditions: UACC-257, Melanoma
[24] = system: HOP-92
[25] = system: SR
[26] = system: SK-MEL-2; conditions: SK-MEL-2, Melanoma
[27] = system: NCI/ADR-RES
[28] = system: UO-31; conditions: UO-31, Renal
[29] = system: OVCAR-8; conditions: OVCAR-8, Ovarian
[30] = system: U251; conditions: U251, CNS
[31] = system: NCI-H522
[32] = system: M14; type: cell-based; conditions: M14, Melanoma
[33] = read-out: 50% lethal concentration (LC50), Leukemia
[34] = read-out: 50% lethal concentration (LC50)
[35] = read-out: 50% lethal concentration (LC50), Breast

SMILES: C=C1CCC2C3(C)COC(c4cn(-c5ccccc5)nc4-c4cccc(Br)c4)OC3CCC2(C)C1CC=C1C(=O)OCC1O (centres unmarked) [1e]
- GI50 ([1]; Leukemia): 1170 nM
- Total growth inhibition (TGI) ([1]; Leukemia): 5.17 µM
- CC50 [1, 33]: > 100 µM
- GI50 [2]: 2490 nM
- CC50 [2, 34]: > 100 µM
- GI50 [3]: 1460 nM
- Total growth inhibition (TGI) [3]: 2.99 µM
- GI50 ([4]; Breast): 2290 nM
- Total growth inhibition (TGI) ([4]; Breast): 7.26 µM
- CC50 [4, 35]: > 100 µM
- GI50 [5]: 2170 nM
- Total growth inhibition (TGI) [5]: 5.24 µM
- CC50 [5, 34]: 17.2 µM
- GI50 ([6]; Breast): 1940 nM
- Total growth inhibition (TGI) ([6]; Breast): 5.19 µM
- CC50 [6, 35]: > 100 µM
- GI50 [7]: 1870 nM
- Total growth inhibition (TGI) [7]: 3.45 µM
- GI50 ([8]; Melanoma): 1640 nM
- Total growth inhibition (TGI) ([8]; Melanoma): 3.03 µM
- CC50 ([8]; read-out: 50% lethal concentration (LC50), Melanoma): 5.59 µM
- Total growth inhibition (TGI) ([9]; NCI-H23, Non-Small Cell Lung): 4.07 µM
- GI50 ([9]; NCI-H23, Non-Small-Cell Lung): 1900 nM
- CC50 ([9]; read-out: 50% lethal concentration (LC50), NCI-H23, Non-Small Cell Lung): 8.74 µM
- Total growth inhibition (TGI) ([10]; Non-Small Cell Lung): 19.9 µM
- GI50 ([10]; Non-Small-Cell Lung): 3.07 µM
- CC50 ([10]; read-out: 50% lethal concentration (LC50), Non-Small Cell Lung): > 100 µM
- GI50 [11]: 1660 nM
- Total growth inhibition (TGI) [11]: 3.46 µM
- CC50 [11, 34]: 7.23 µM
- GI50 [12]: 4.33 µM
- Total growth inhibition (TGI) [12]: 8.1 µM
- CC50 [12, 34]: 44 µM
- GI50 ([13]; Leukemia): 700 nM
- CC50 [13, 33]: > 100 µM
- GI50 [14]: 2890 nM
- Total growth inhibition (TGI) [14]: > 100 µM
- CC50 [14, 34]: > 100 µM
- GI50 [15]: 1570 nM
- Total growth inhibition (TGI) [15]: 5.32 µM
- CC50 [15, 34]: 22.9 µM
- GI50 [16]: 2120 nM
- Total growth inhibition (TGI) [16]: 3.58 µM
- CC50 [16, 34]: 40.4 µM
- GI50 ([17]; Renal): 1570 nM
- Total growth inhibition (TGI) ([17]; Renal): 2.55 µM
- CC50 ([17]; read-out: 50% lethal concentration (LC50), Renal): 8.12 µM
- Total growth inhibition (TGI) ([18]; HOP-62, Non-Small Cell Lung): 4.94 µM
- GI50 ([18]; HOP-62, Non-Small-Cell Lung): 2080 nM
- CC50 ([18]; read-out: 50% lethal concentration (LC50), HOP-62, Non-Small Cell Lung): > 100 µM
- GI50 [19]: 1720 nM
- Total growth inhibition (TGI) [19]: 3.64 µM
- GI50 [20]: 1680 nM
- Total growth inhibition (TGI) [20]: 3.4 µM
- CC50 [20, 34]: 6.9 µM
- GI50 [21]: 2090 nM
- Total growth inhibition (TGI) [21]: 4.36 µM
- GI50 [22]: 2290 nM
- CC50 [22, 34]: > 100 µM
- GI50 [23]: 1770 nM
- Total growth inhibition (TGI) [23]: 3.45 µM
- Total growth inhibition (TGI) ([24]; HOP-92, Non-Small Cell Lung): 3.41 µM
- GI50 ([24]; HOP-92, Non-Small-Cell Lung): 1750 nM
- GI50 ([25]; Leukemia): 1770 nM
- CC50 [25, 33]: > 100 µM
- GI50 [26]: 1780 nM
- Total growth inhibition (TGI) [26]: 3.38 µM
- GI50 ([27]; Ovarian): 2150 nM
- Total growth inhibition (TGI) ([27]; Ovarian): 5.37 µM
- CC50 ([27]; read-out: 50% lethal concentration (LC50), Ovarian): > 100 µM
- GI50 [28]: 1450 nM
- Total growth inhibition (TGI) [28]: 5.34 µM
- CC50 [28, 34]: 6.83 µM
- GI50 [29]: 1760 nM
- Total growth inhibition (TGI) [29]: 4.22 µM
- CC50 [29, 34]: > 100 µM
- GI50 [30]: 1690 nM
- Total growth inhibition (TGI) [30]: 3.13 µM
- Total growth inhibition (TGI) ([31]; NCI-H522, Non-Small Cell Lung): 2.9 µM
- GI50 ([31]; NCI-H522, Non-Small-Cell Lung): 1500 nM
- CC50 ([31]; read-out: 50% lethal concentration (LC50), NCI-H522, Non-Small Cell Lung): 5.62 µM
- GI50 [32]: 1860 nM
- Total growth inhibition (TGI) [32]: 4.12 µM
